The source of these data is patent US9469615B2, “Quinoxalines and AZA-quinoxalines as CRTH2 receptor modulators” (Merck Sharp & Dohme Corp., priority 2010, dated 2016).

pKi: −log10 of the molar value.

The test has as its target T1, hCRTH2 (Homo sapiens, UniProt Q9Y5Y4).
T1 construct: expressed in transfected cells; host or cells: HEK (human embryonic kidney) cells expressing hCRTH2; membrane preparation
T1 sequence (Q9Y5Y4 1-395): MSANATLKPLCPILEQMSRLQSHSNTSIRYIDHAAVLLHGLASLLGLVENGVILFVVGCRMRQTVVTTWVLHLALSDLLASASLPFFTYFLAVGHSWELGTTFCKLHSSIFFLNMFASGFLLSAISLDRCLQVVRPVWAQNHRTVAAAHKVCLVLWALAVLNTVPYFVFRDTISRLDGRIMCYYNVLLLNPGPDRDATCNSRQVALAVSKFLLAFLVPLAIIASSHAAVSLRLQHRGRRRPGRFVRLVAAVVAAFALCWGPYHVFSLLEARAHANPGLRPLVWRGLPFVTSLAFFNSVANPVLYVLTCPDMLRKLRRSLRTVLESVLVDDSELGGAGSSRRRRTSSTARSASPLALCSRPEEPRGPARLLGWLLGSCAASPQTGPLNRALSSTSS
The experiment in a line: Radioligand binding assay ([3H]PGD2 competition, HEK-hCRTH2 membranes). Put shortly:
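Displacement of 3.0 nM [3H]PGD2 from human CRTH2 expressed in HEK membranes was measured at room temperature over 60 min. Unlabelled PGD2 at 10 μM gave non-specific binding.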

Where [1] appears, read: [3H]PGD2 binding, rated A-E (Table A).

In general, pKi refers to the negative decadic logarithm of the Ki, by convention in mol/L. In turn, `O=C(O)CCCCc1nc2cc(C(=O)N3CC(c4ccc(Cl)cc4)C3)ccc2nc1-c1ccccc1` [compound 252, 7-[[3-(4-chlorophenyl)-1-azetidinyl]carbonyl]-3-phenyl-2-quinoxalinepentanoic acid] gave a pKi under setting [1] of 8.70 to 10.00. `CC(CCc1nc2cc(C(=O)N[C@@H]3CCCc4ccccc43)ccc2nc1-c1ccc(F)cc1)CC(=O)O` (stereo partly drawn) [compound 431, 5-(3-(4-fluorophenyl)-7-(((R)-1,2,3,4-tetrahydronaphthalen-1-yl)carbamoyl)quinoxalin-2-yl)-3-methylpentanoic acid] showed a pKi ([3H]PGD2 competition, Table B) of 7.70 to 8.68.

In turn, `C[C@@H](CCc1nc2cc(C(=O)N[C@H](C)c3ccc(F)cc3)ccc2nc1-c1ccccc1)CC(=O)O` [compound 287, (S)-5-(7-(((R)-1-(4-fluorophenyl)ethyl)carbamoyl)-3-phenylquinoxalin-2-yl)-3-methylpentanoic acid] had a pKi ([3H]PGD2 competition, Table B) of 6.70 to 7.70.

In the case of `Cc1ccccc1N1CCN(C(=O)c2ccc3nc(-c4ccc(Cl)cc4)c(CCCCC(=O)O)nc3c2)CC1` [compound 619, 5-(3-(4-chlorophenyl)-7-(4-(o-tolyl)piperazine-1-carbonyl)quinoxalin-2-yl)pentanoic acid], the pKi ([3H]PGD2 competition, Table B) was 8.70 to 10.00. As to `O=C(N[C@@H]1CCCc2ccccc21)c1ccc2nc(-c3ccc(F)cc3)c(CCCC(F)(F)C(=O)O)nc2c1` [compound 486, (R)-2,2-difluoro-5-(3-(4-fluorophenyl)-7-((1,2,3,4-tetrahydronaphthalen-1-yl)carbamoyl)quinoxalin-2-yl)pentanoic acid], the pKi ([3H]PGD2 competition, Table B) is 7.70 to 8.68. For the molecule `O=C(O)CCCCc1nc2cc(C(=O)NC3CCCc4ccccc43)ccc2nc1-c1ccc(Cl)cc1` (stereo not drawn) [16Ai, 3-(4-chlorophenyl)-7-[[(1,2,3,4-tetrahydro-1-naphthalenyl)amino]carbonyl]-2-quinoxalinepentanoic acid], under setting [1], the pKi is 8.70 to 10.00. For `O=C(O)CCCCc1nc2cc(C(=O)N3CCC4(CCCc5ccccc54)C3)ccc2nc1-c1ccccc1` (stereo not drawn) [compound 297, 5-(7-(3,4-dihydro-2H-spiro[naphthalene-1,3′-pyrrolidin]-1′-ylcarbonyl)-3-phenylquinoxalin-2-yl)pentanoic acid], the pKi ([3H]PGD2 competition, Table B) was 7.70 to 8.68.

`O=C(O)CCCCc1nc2cc(C(=O)NCc3cc(Cl)cc(Cl)c3)ccc2nc1-c1ccc(F)cc1` [compound 108, 7-[[[(3,5-dichlorophenyl)methyl]amino]carbonyl]-3-(4-fluorophenyl)-2-quinoxalinepentanoic acid]: the pKi under setting [1] was 7.70 to 8.68. For the setting “[3H]PGD2 competition, Table B”, `O=C(O)CCCCc1nc2cc(C(=O)NC3CC(=O)Nc4ccccc43)ccc2nc1-c1ccccc1` (stereo not drawn) [compound 266, 5-(7-((2-oxo-1,2,3,4-tetrahydroquinolin-4-yl)carbamoyl)-3-phenylquinoxalin-2-yl)pentanoic acid] showed a pKi of 7.70 to 8.68. As for `O=C(O)CCCCc1nc2cc(C(=O)NCc3cccc(F)c3)ccc2nc1-c1ccccc1` [15AC, 5-{7-[(3-fluorobenzyl)carbamoyl]-3-phenylquinoxalin-2-yl}pentanoic acid], the negative-log Ki (pKi) under setting [1] is 8.70 to 10.00.

The molecule `C[C@@H](CCCc1nc2cc(C(=O)N[C@@H]3CCCc4ncccc43)ccc2nc1-c1ccc(F)cc1)C(=O)O` [compound 521, (S)-5-(3-(4-fluorophenyl)-7-(((R)-5,6,7,8-tetrahydroquinolin-5-yl)carbamoyl)quinoxalin-2-yl)-2-methylpentanoic acid] had a pKi ([3H]PGD2 competition, Table B) of 6.70 to 7.70.

With `O=C(O)CCCCc1nc2cc(C(=O)N3CCn4cc(C(F)(F)F)nc4C3)ccc2nc1-c1ccc(Cl)cc1` [compound 668, 5-(3-(4-chlorophertyl)-7-(2-(trifluoromethyl)-5,6,7,8-tetrahydroimidazo[1,2-a]pyrazine-7-carbonyl)quinoxalin-2-yl)pentanoic acid], the pKi ([3H]PGD2 competition, Table B) is 6.70 to 7.70. Turning to `CC1(C)c2ccc(F)cc2CN1C(=O)c1ccc2nc(-c3ccc(Cl)cc3)c(CCCCC(=O)O)nc2c1` [compound 558, 5-(3-(4-chlorophenyl)-7-(5-fluoro-1,1-dimethylisoindoline-2-carbonyl)quinoxalin-2-yl)pentanoic acid], the pKi ([3H]PGD2 competition, Table B) is 7.70 to 8.68. Same read-out and setting: with `O=C(NCc1ccccc1)c1ccc2nc(-c3ccc(F)cc3)c(CCCC(F)(F)C(=O)O)nc2c1` [compound 443, 5-(7-(benzylcarbamoyl)-3-(4-fluorophenyl)quinoxalin-2-yl)-2,2-difluoropentanoic acid] the figure was 7.70 to 8.68; with `O=C(O)CCCCc1nc2cc(C(=O)N3CC(n4cccn4)C3)ccc2nc1-c1ccc(Cl)cc1` [compound 324, 5-(7-(3-(1H-pyrazol-1-yl)azetidine-1-carbonyl)-3-(4-chlorophenyl)quinoxalin-2-yl)pentanoic acid], 7.70 to 8.68.

For `O=C(O)CCCCc1nc2cc(C(=O)N3CCC(c4ccccc4)C3)ccc2nc1-c1ccc(C(F)(F)F)cc1` (stereo not drawn) [compound 26, 5-(7-(3-Phenylpyrrolidine-1-carbonyl)-3-(4-(trifluoromethyl)phenyl)-quinoxalin-2-yl)pentanoic acid], the pKi under setting [1] was 8.70 to 10.00.

Turning to `COc1cccc(C2CN(C(=O)c3ccc4nc(-c5ccc(F)cc5)c(CCCCC(=O)O)nc4c3)C2)c1` [compound 373, 5-(3-(4-fluorophenyl)-7-(3-(3-methoxyphenyl)azetidine-1-carbonyl)quinoxalin-2-yl)pentanoic acid], the pKi ([3H]PGD2 competition, Table B) was 7.70 to 8.68. `O=C(N[C@@H]1CCOc2ccccc21)c1ccc2nc(-c3ccc(F)cc3)c(CCCC(F)(F)C(=O)O)nc2c1` [compound 547] had a pKi ([3H]PGD2 competition, Table B) of 6.70 to 7.70. The molecule `CC(CCCc1nc2cc(C(=O)N3CC[C@@H](c4ccccc4)C3)ccc2nc1-c1ccc(C(F)(F)F)cc1)C(=O)O` (stereo partly drawn) [18E, alpha-methyl-7-[(3(S)-phenyl-1-pyrrolidinyl)carbonyl]-3-[4-(trifluoromethyl)phenyl]-2-quinoxalinepentanoic acid] showed a pKi under setting [1] of 8.70 to 10.00. Same read-out and setting: with `CS(=O)(=O)N1CC2(CCN(C(=O)c3ccc4nc(-c5ccccc5)c(CCCCC(=O)O)nc4c3)CC2)c2ccccc21` [compound 118, 7-[[1,2-dihydro-1-(methylsulfonyl)spiro[3H-indole-3,4′-piperidin]-1′-yl]carbonyl]-3-phenyl-2-quinoxalinepentanoic acid] the figure was 7.70 to 8.68. Regarding `Cc1cnccc1N1CCN(C(=O)c2ccc3nc(-c4ccc(Cl)cc4)c(CCCCC(=O)O)nc3c2)CC1` [compound 683, 5-(3-(4-chlorophenyl)-7-(4-(3-methylpyridin-4-yl)piperazine-1-carbonyl)quinoxalin-2-yl)pentanoic acid], the pKi ([3H]PGD2 competition, Table B) is 7.70 to 8.68. In turn, `C[C@H](NC(=O)c1ccc2nc(-c3ccccc3)c(CCCCC(=O)O)nc2c1)c1ccc(F)cc1` [15E, 5-(7-{[(1S)-1-(4-fluorophenyl)ethyl]carbamoyl}-3-phenylquinoxalin-2-yl)pentanoic acid] gave a pKi under setting [1] of 8.70 to 10.00.

`O=C(O)CCCCc1nc2cc(C(=O)N3CCC(n4c(=O)[nH]c5ccccc54)CC3)ccc2nc1-c1ccc(F)cc1` [compound 356, 5-(3-(4-fluorophenyl)-7-(4-(2-oxo-2,3-dihydro-1H-benzo[d]imidazol-1-yl)piperidine-1-carbonyl)quinoxalin-2-yl)pentanoic acid]: the pKi ([3H]PGD2 competition, Table B) is 6.70 to 7.70. On the same count and under the same terms, next, `CN(C(=O)c1ccc2nc(-c3ccccc3)c(CCCCC(=O)O)nc2c1)[C@@H]1CCCc2cc(F)ccc21` [compound 379, (R)-5-(7-((6-fluoro-1,2,3,4-tetrahydronaphthalen-1-yl)(methyl)carbamoyl)-3-phenylquinoxalin-2-yl)pentanoic acid]: 7.70 to 8.68. For `O=C(O)CCCCc1nc2cc(C(=O)N3CCC4(CC3)C(=O)NCN4c3ccccc3)ccc2nc1-c1ccccc1` [compound 125, 7-[(4-oxo-l-phenyl-1,3,8-triazaspiro[4.5]dec-8-yl)carbonyl]-3-phenyl-2-quinoxalinepentanoic acid], the pKi under setting [1] is 7.70 to 8.68. In the case of `COc1ccccc1C1CCN(C(=O)c2ccc3nc(-c4ccc(Cl)cc4)c(CCCCC(=O)O)nc3c2)CC1` [compound 632, 5-(3-(4-chlorophenyl)-7-(4-(2-methoxyphenyl)piperidine-1-carbonyl)quinoxalin-2-yl)pentanoic acid], the pKi ([3H]PGD2 competition, Table B) is 8.70 to 10.00. In turn, `O=C(O)CCCCc1nc2cc(C(=O)NCc3ccncc3)ccc2nc1-c1ccc(C(F)(F)F)cc1` [3AC, 7-[[(4-pyridinylmethyl)-amino]carbonyl]-3-[4-(trifluoromethyl)phenyl]-2-quinoxalinepentanoic acid] showed a pKi under setting [1] of 7.70 to 8.68.

In turn, `C[C@@H](CCc1nc2cc(C(=O)N3CC[C@@H](c4ccccc4)C3)ccc2nc1-c1ccccc1)CC(=O)O` [compound 291, (S)-3-methyl-5-(3-phenyl-7-((S)-3-phenylpyrrolidine-1-carbonyl)quinoxalin-2-yl)pentanoic acid] showed a pKi ([3H]PGD2 competition, Table B) of 7.70 to 8.68.

In the case of `O=C(O)CCCCc1nc2cc(C(=O)NCc3ccccc3)ccc2nc1-c1ccc(F)cc1` [compound 129, 3-(4-fluorophenyl)-7-[[(phenylmethyl)amino]carbonyl]-2-quinoxalinepentanoic acid], under setting [1], the negative logarithm of the Ki (pKi) was 8.70 to 10.00. On to `C[C@@H](NC(=O)c1ccc2nc(-c3ccc(Cl)cc3)c(CCCCC(=O)O)nc2c1)c1cc(F)cc(F)c1` [compound 412, (R)-5-(3-(4-chlorophenyl)-7-((1-(3,5-difluorophenyl)ethyl)carbamoyl)quinoxalin-2-yl) pentanoic acid], for which the negative-log Ki (pKi) ([3H]PGD2 competition, Table B) was 8.70 to 10.00.
